“Also recorded” adds a separate entry of the source.
How the values were obtained:
[1] = test system: hCD34+ cells; test: VCN of pooled colonies after 14 day MethoCult culture, staurosporine and/or PGE2; assay type: cell-based, human; conditions: for VCN compared to controls or other treatments, in words: mean VCN
Description: (§1) Washed cells were resuspended in 200 μL SCGM and then transferred to 3 mL aliquots of cytokine-supplemented methylcellulose (for example, Methocult M4434 Classic). 1.1 mL was then transferred to parallel 35-mm tissue culture dishes using a blunt 16-gauge needle. Dishes were maintained in a standard humidified tissue culture incubator for 12-16 days and colonies were scored for size, morphology, and cellular composition. Individual colonies were then picked for subsequent VCN analysis or the contents of an entire 35-mm dish were pooled and then subject to VCN analysis.
Cells were then transduced with LVV and cultured in the presence of protamine sulfate (standard), PGE2 or vehicle. After transduction, cells were washed and cultured in MethoCult for 14 days.
After a 14 day MethoCult culture, pooled colonies were collected and analyzed for VCN. Mean VCN data is shown. […] FIG. 8.

[2] = test system: transplanted hCD34+ cells; test: Engraftment and differentiation of transplanted hCD34+ cells in NSG mice (flow cytometry of BM); assay type: in vivo; conditions: BM four months post-transplant
Excerpt: (§2) HSCs transduced with lentivirus were transplanted into NOD/SCID Gamma (NSG) mice to assess the effect of candidate compounds on viral transduction of human long-term hematopoietic stem cells. Transduced cells were washed and resuspended in phosphate-buffered saline (PBS) and transplanted into the tail vein of sub-myeloablated adult NSG mice, with minimal residual toxicity. Mice were housed in a pathogen-free environment per standard IACUC animal care guidelines. At 4 months post-transplant bone marrow (BM) was harvested from both femurs and analyzed for both VCN and engraftment of human cells by staining with an anti-hCD45 antibody (BD #561864) followed by flow cytometry analysis.
Cells were stained with an antibody cocktail recognizing various cell surface markers (CD45, CD33, CD3, CD19) and analyzed via flow cytometry. […] FIG. 5B.

[3] = test system: hCD34+ cells; test: BlaM (BLAM) assay for assessment of viral entry; assay type: cell-based, human
Description: Cells were transduced for 2 hours in the presence of F108, PGE2, and a virus encoding a β-lactamase-Vpr fusion protein. Following transduction, cells were washed and incubated with a fluorescent β-lactamase substrate for 30-60 minutes. β-lactamase cleavage was analyzed by flow cytometry: uncleaved substrate is GFP^+, and cleavage of the fluorescent β-lactamase results in a Pacific Blue^+ signal. β-lactamase cleavage indicates lentivirus entry into the cell. See also, Cavrois et al. Nature Biotechnology. 2002.
Cells transduced for 2 hours were then subjected to staining and flow analysis for the BLAM assay to quantify viral entry. […]. FIGS. 1B and 1C.

[4] = test system: long-term NSG repopulating cells; test: VCN of bone marrow from NSG mice 4 months post-transplant of transduced hCD34+ cells; assay type: in vivo
Excerpt: as §2
(§3) Following transduction, cells were washed and injected into busulfan-treated NSG mice. Aliquots of the drug product were retained for in vitro analysis. […] FIG. 4A. […] FIG. 4A. After 4 months in vivo, NSG mice were sacrificed and BM was collected and analyzed for VCN of the engrafted hCD34+ cells. There was an overall decrease in mean VCNs across all groups in vivo as compared to the drug product VCNs, indicating higher transduction of short-term progenitors rather than long-term stem cells. FIG. 4B.

[5] = test system: bulk hCD34+ cells and CD34+CD38LoCD90+CD45RA- phenotypic stem cells; test: Single-cell PCR assay of transduction efficiency in bulk and CD34+CD38LoCD90+CD45RA- cells; assay type: cell-based, human; conditions: 400 nM or 800 nM staurosporine 2 hours
Description: (§4) Washed cells were resuspended in 2 mL Stem Cell Growth Medium (SCGM)+cytokines and transferred to a standard 12-well non-adherent tissue culture plate. Cells were maintained for an additional 6 days in a standard humidified tissue culture incubator (5% CO2) and then subjected to Vector Copy Number (VCN) analysis or single-cell nested PCR to determine transduction efficiency. Both VCN and the single-cell nested PCR assay were performed with qPCR using primers and probes specific to both the vector and an endogenous control gene. VCN was determined by dividing the amount of vector signal by the amount of the endogenous control gene. For the single-cell nested PCR assay, wells that contained a cell positive for the endogenous control gene and wells that contained a marked cell positive for both the vector and the endogenous control gene were enumerated, and the proportion of marked cells, or transduction efficiency, was calculated.
Thawed hCD34+ cells were stained with antibodies against cell surface markers for phenotypic HSCs (CD34^+CD38^LoCD90^+CD45^RA− cells) and then sorted using a Sony Cell Sorter. […] After culture, the cells were then single-cell sorted into 96 well plates and analyzed via the single-cell PCR assay to assess transduction efficiency, the percent lentiviral vector positive cells. […]

[6] = test system: hCD34+ grafts; test: Non-restrictive insertion site analysis (polyclonality)
Description: Identified insertion sites were mapped within gene regions to examine the lentiviral integration profile. […] Insertion sites were also quantified as the percent of total reads. The top 10 clones are shown for each treatment.
Insertion sites were pooled for each group and quantified as the percent of total reads. The top 10 clones are shown for each treatment.

[7] = test system: hCD34+ cells; test: Vector copy number (VCN) analysis of hCD34+ cells transduced with LVV after staurosporine treatment; assay type: cell-based, human
Description: as §4, §1
Cells transduced for 2 hours were then subjected to staining and flow analysis for the BLAM assay to quantify viral entry. […] FIG. 1A. […] FIGS. 1B and 1C.
These seven cell lots had been prospectively classified as low, medium, or high transducing cell lots. A low transducing cell lot is defined here as having a mean VCN <0.5 in vehicle-treated transductions, a medium transducing cell lot is defined here as having a mean 0.5<VCN<1, and a high transducing cell lot is defined here as having a mean VCN>1. […] This property of leveling average VCN among cell lots with different transducibility could aid in controlling variability between cell lots and normalizing drug product VCNs.
as §3

[8] = test system: hCD34+ cells; test: Transgene (LNGFR) expression by flow cytometry; assay type: cell-based, human; conditions: 200 nM staurosporine 2 hours, 24 hour transduction
[9] = test system: hCD34+ cells; test: Methylcellulose assay for CFC formation (stem cell potential); assay type: cell-based, human
Description: as §1
For the 2 hour incubation, cells were subsequently washed and cultured in transduction media for the remaining 24 hours. Following the cultures, cells were plated in methylcellulose for CFC formation. […] FIG. 2B. […] FIG. 2A.

## CCCCC[C@H](O)/C=C/[C@H]1[C@H](O)CC(=O)[C@@H]1C/C=C\CCCC(=O)O [PGE2, prostaglandin E2]
[1]
  VCN compared to controls or other treatments, in words: increased VCN compared to controls

## CN[C@@H]1C[C@H]2O[C@@](C)([C@@H]1OC)n1c3ccccc3c3c4c(c5c6ccccc6n2c5c31)C(=O)NC4 [staurosporine, Staurosporine]
[2]; 400 nM or 800 nM
  effect of staurosporine treatment on engraftment: does not affect engraftment; also recorded: no statistically significant effect
  proportion of myeloid (CD33+) or lymphoid (CD3+ or CD19+) cells / differentiation capabilities: is maintained; also recorded: no difference
[2]; all groups (vehicle, 400 nM, 800 nM staurosporine)
  level of engraftment of hCD34+ cells: 30-40%
[3]; 200 nM staurosporine 2 hours, washed, 2 hour transduction
  increase in the amount of cells containing LVV compared to vehicle-treated controls: ~50%
[3]; staurosporine-treated hCD34+ cells, two MOIs
  percentage of cells containing vector by BLAM assay, fold higher than controls: 1.5 fold
[4]; 400 nM staurosporine prior to transduction
  fold improvement in mean in vivo VCN of BM relative to vehicle: 3 fold
[4]; 800 nM staurosporine prior to transduction
  fold improvement in mean in vivo VCN of BM relative to vehicle: 4 fold
[5]
  transduction efficiency (percent lentiviral vector positive cells) versus standard transduction: increased transduction efficiency compared to standard transduction conditions; also recorded: higher than the transduction efficiency of the cells transduced using the standard transduction protocol
[6]; BM four months post-transplant, top 10 clones
  clonality of engrafted cells (insertion site profile): polyclonal insertion site profile similar to vehicle treated cells
[6]; pre-transplant drug product, insertion sites mapped within gene regions
  lentiviral integration profile of transduced cells: did not appear to skew
[6]; pre-transplant drug product, top 10 clones as percent of total reads
  clonality of pre-transplantation samples: polyclonality
[7]; 200 nM staurosporine 2 hours, washed, 24 hour transduction
  fold increase in (mean) VCN versus control: 2 fold
[7]; 400 nM staurosporine 2 hours
  mean VCN of the drug product, in words: did not significantly improve the mean VCN
[7]; 800 nM staurosporine
  mean VCN of the drug product, in words: VCN enhancement
[7]; 800 nM staurosporine 2 hours
  fold improvement in mean VCN of the drug product (pooled colonies) versus vehicle: approximately 2 fold
[7]; 800 nM staurosporine 2 hours, high transducing cell lots (mean VCN>1)
  fold increase in average VCN: 1.2 fold
[7]; 800 nM staurosporine 2 hours, low transducing cell lots (mean VCN <0.5)
  fold increase in average VCN: 2.3 fold
[7]; 800 nM staurosporine 2 hours, medium transducing cell lots (0.5<VCN<1)
  fold increase in average VCN: 1.5 fold
[7]; 200, 400, 800 nM, high transducing cell lots
  effect of increasing staurosporine concentration on VCN enhancement: plateaus
[7]; 200, 400, 800 nM, low and medium transducing cell lots
  effect of increasing staurosporine concentration on mean VCN: trend for increasing mean VCN
[1]
  VCN compared to controls or other treatments, in words: increased VCN compared to controls; also recorded: outperforms PGE2 addition
[1]; staurosporine two hours before transduction
  fold increase in VCN: 3 fold
[8]
  fold increase in transgene expression (LNGFR): 1.5 fold
[9]; 2 hour exposure, 200 nM, 400 nM or 800 nM
  colony formation ability: retain colony formation ability and do not significantly differ from control-treated cells; also recorded: did not affect the ability of the hCD34^+ cells to form colonies
[9]; 24 hour exposure, 800 nM
  colony-forming potential: few hCD34^+ cells that retain colony-forming potential
[9]; 24 hour exposure, lower doses (200 nM, 400 nM)
  decrease in CFC formation: > 50%
[9]; 24 hours exposure, 3 different concentrations of staurosporine
  reduction in CFC formation: > 50%

Source: patent US11326183B2, “VCN enhancer compositions and methods of using the same” (priority 2016, dated 2022)
